Source: PMC6952399, “Structures of lipoprotein signal peptidase II from Staphylococcus aureus complexed with antibiotics globomycin and myxovirescin” (Nature Communications, 2020)

Biological target: T1, LspMrs R110K (Staphylococcus aureus, UniProt Q6GHN9, R110K)
T1 construct: MGSS-hexahistidine-SSGR-TEV site (ENLYFQ) (N, cleaved yes); made in house; host or cells: E. coli C43 (DE3)
Assay: Gel-shift peptidase assay, LspMrs R110K mutant
Type: biochemical, methicillin-resistant Staphylococcus aureus
Method: LspA mutant genes (N52A, N52Q, G54A, G54P, R110A, R110K, D118N, N133A, N133Q and D136N) were obtained by site-directed mutagenesis of the wild-type lspA construct in pETDuet. Mutagenesis was performed using the Q5® Site-Directed Mutagenesis Kit (New England Biolabs) and specific primers are listed in Supplementary Table 5. The correct mutations were confirmed by sequencing (Eurofins Genomics). Expression and purification of all LspMrs wild-type and mutants for enzyme assays were performed as described above with the following modifications: TALON® Metal Affinity Resin (Clontech) was used for IMAC purification and the detergent DDM was used for membrane solubilisation and protein purification.
The peptidase activity of LspMrs and P. aeruginosa LspA (LspPae) was quantified in a coupled gel-shift assay developed previously for LspPae[5]. The P. aeruginosa lipoprotein pre-proICP and the first two enzymes in the bacterial lipoprotein processing pathway Lgt and LspA were expressed and purified, as described. For FRET assays LspMrs was expressed and purified as described above and LspPae was expressed and purified as described in a published protocol.
Gel-shift activity assay. […] Band intensities of ICP were quantified using Image Lab. […]

SMILES	IC50
CCCCCC[C@H]1OC(=O)CNC(=O)[C@H]([C@H](C)O)NC(=O)[C@H](CO)NC(=O)[C@H]([C@H](C)CC)NC(=O)[C@H](CC(C)C)N(C)C(=O)[C@@H]1C [globomycin]	1730 ± 100 nM
CCCC1OC(=O)C(C)CC(C)CCCCC(=O)CCCC(CC)C=CC=C(COC)CCC(O)C(O)CC(O)CNC1=O (centres unmarked) [myxovirescin, myxovirescin A1]	400 ± 30 nM
